{"source": "patent US20100312073A1", "about": "“METHOD OF […] […]” (priority 2008, published 2010)", "test_system": "DNIC efficiency (diffuse noxious inhibitory control)", "details": "60 mg once a day for one week, healthy volunteers", "note": "Like-named read-outs stand apart in the source and are kept apart here.", "description": "According to an exemplary testing procedure, the DNIC can be assessed as the difference of pain ratings to ‘test stimulus’ applied before and during the immersion of the contralateral hand into hot water bath (conditioning stimulus) as elaborated infra. Exemplary test stimulus of a 30 seconds period with contact heat, such as 30×30 mm^2 thermode TSA-2001 available from Medoc, can be delivered for instance on the non-dominant forearm at the individually-predetermined temperature that evoked pain intensity of 60 on a 0-100 NPS (more details in Granot et al., 2006). The stimulus temperature can be raised by 2° C./sec from 32° C. to the destination temperature. Fifteen minutes after the completion the first pre-immersion test, the patient is asked to immerse his/her dominant hand for 1′ into the water bath of 46.5° C. (Neto Cooling Bath CBN 8-30, Allerod, Denemark), while second application of the ‘test stimulus’ is repeated during last 30 seconds of immersion. […]\nDNIC paradigm, tested at baseline and after each of the treatments, consisted of administration of two painful stimuli, a test-pain delivered by contact heat, and a ‘conditioning’ pain induced by hot water immersion of the other hand. The DNIC efficiency was calculated as the difference between pain perceptions induced by the test-pain when given alone, and when given concomitantly with the conditioning one.", "data": [{"smiles": "CNCC[C@H](Oc1cccc2ccccc12)c1cccs1", "note": "[Duloxetine]", "values": [{"measurement": "Duloxetine treatment DNIC score", "setting": "high pre-treatment DNIC group (pre-treatment DNIC score 32.50), NS vs. pre-treatment", "value": 29.26}, {"measurement": "Duloxetine treatment DNIC score", "setting": "low pre-treatment DNIC group (pre-treatment DNIC score 0.15), P<0.05 vs. pre-treatment (Tukey)", "value": 19.35}]}]}
